Experimental data as given in ChEMBL document CHEMBL5724914, “Linking interpersonal differences in gut microbiota composition and drug biotransformation activity” (2024).

Key:
[1] = human gut metagenome, 24 h, 2 µM
[2] = human gut metagenome, 24 h, 2 µM; remark: listed apart in the source
[3] = human gut metagenome, 24 h, 2 µM; remark: listed apart in the source
[4] = human gut metagenome, 24 h, 2 µM; remark: listed apart in the source
[5] = human gut metagenome, 24 h, 2 µM; remark: listed apart in the source
[6] = human gut metagenome, 24 h, 2 µM; remark: listed apart in the source
[7] = (§1) The drug is tested on Z-007 corresponding to rat gut metagenome with ENA study accession number: PRJEB37062 and ENA sample accession number: ERS12561807 for biotransformation under anaerobic condition. The drug concentrations were measured over 9 timepoints collected between 0 and 24 hours of incubation by liquid-chromatography-coupled mass spectrometry (LC–MS); conditions: 2 µM
[8] = human gut metagenome, 24 h, 2 µM; remark: listed apart in the source
[9] = human gut metagenome, 24 h, 2 µM; remark: listed apart in the source
[10] = as §1, with “on WLS-170” for “on Z-007”, “to human” for “to rat”, “number: ERS12561762” for “number: ERS12561807”; conditions: 2 µM
[11] = as §1, with “on Z-028” for “on Z-007”, “to mouse” for “to rat”, “number: ERS12561827” for “number: ERS12561807”; conditions: 2 µM
[12] = human gut metagenome, 24 h, 2 µM; remark: listed apart in the source
[13] = as §1, with “on WLS-240” for “on Z-007”, “to human” for “to rat”, “number: ERS12561773” for “number: ERS12561807”; conditions: 2 µM
[14] = as §1, with “on WLS-010” for “on Z-007”, “to human” for “to rat”, “number: ERS12561743” for “number: ERS12561807”; conditions: 2 µM
[15] = as §1, with “on WLS-073” for “on Z-007”, “to human” for “to rat”, “number: ERS12561749” for “number: ERS12561807”; conditions: 2 µM
[16] = as §1, with “on WLS-006” for “on Z-007”, “to human” for “to rat”, “number: ERS12561741” for “number: ERS12561807”; conditions: 2 µM
[17] = as §1, with “on WLS-350” for “on Z-007”, “to human” for “to rat”, “number: ERS12561789” for “number: ERS12561807”; conditions: 2 µM
[18] = as §1, with “on Z-022” for “on Z-007”, “to mouse” for “to rat”, “number: ERS12561821” for “number: ERS12561807”; conditions: 2 µM
[19] = human gut metagenome, 24 h, 2 µM; remark: listed apart in the source
[20] = human gut metagenome, 24 h, 2 µM; remark: listed apart in the source
Note: call rule not given here.

Compound | Bacterial Biotransformation [1] | Bacterial Biotransformation [2] | Bacterial Biotransformation [3] | Bacterial Biotransformation [4] | Bacterial Biotransformation [5] | Bacterial Biotransformation [6] | Bacterial Biotransformation [7] | Bacterial Biotransformation [8] | Bacterial Biotransformation [9] | Bacterial Biotransformation [10] | Bacterial Biotransformation [11] | Bacterial Biotransformation [12] | Bacterial Biotransformation [13] | Bacterial Biotransformation [14] | Bacterial Biotransformation [15] | Bacterial Biotransformation [16] | Bacterial Biotransformation [17] | Bacterial Biotransformation [18] | Bacterial Biotransformation [19] | Bacterial Biotransformation [20]
O=c1[nH]c2ccccc2n1C1CCN(CCCC(c2ccc(F)cc2)c2ccc(F)cc2)CC1 [PIMOZIDE] | Compound metabolized | Compound metabolized | Compound metabolized | Compound metabolized | Compound metabolized | Compound metabolized | Compound metabolized | Compound metabolized | Compound NOT metabolized | Compound metabolized | Compound NOT metabolized | Compound metabolized | Compound metabolized | Compound metabolized | Compound metabolized | Compound metabolized | Compound metabolized | Compound NOT metabolized | Compound metabolized | Compound metabolized
CC(C)N(CCC(C(N)=O)(c1ccccc1)c1ccccn1)C(C)C.O=P(O)(O)O (stereo not given) [DISOPYRAMIDE PHOSPHATE] | Compound NOT metabolized | Compound NOT metabolized | Compound NOT metabolized | Compound NOT metabolized | Compound NOT metabolized | Compound NOT metabolized | Compound NOT metabolized | Compound NOT metabolized | Compound NOT metabolized | Compound NOT metabolized | Compound NOT metabolized | Compound NOT metabolized | Compound NOT metabolized | Compound NOT metabolized | Compound NOT metabolized | Compound metabolized | Compound NOT metabolized | Compound NOT metabolized | Compound NOT metabolized | Compound NOT metabolized
CN(C)CCC=C1c2ccccc2C=Cc2ccccc21 [CYCLOBENZAPRINE] | Compound metabolized | Compound metabolized | Compound metabolized | Compound metabolized | Compound metabolized | Compound metabolized | Compound NOT metabolized | Compound metabolized | Compound metabolized | Compound metabolized | Compound NOT metabolized | Compound metabolized | Compound metabolized | Compound metabolized | Compound metabolized | Compound metabolized | Compound metabolized | Compound NOT metabolized | Compound NOT metabolized | Compound metabolized
CC(C)(C(=O)O)c1ccc(C(O)CCCN2CCC(C(O)(c3ccccc3)c3ccccc3)CC2)cc1 (stereo not given) [FEXOFENADINE] | Compound NOT metabolized | Compound NOT metabolized | Compound NOT metabolized | Compound NOT metabolized | Compound NOT metabolized | Compound NOT metabolized | Compound NOT metabolized | Compound NOT metabolized | Compound NOT metabolized | Compound NOT metabolized | Compound NOT metabolized | Compound NOT metabolized | Compound NOT metabolized | Compound NOT metabolized | Compound NOT metabolized | Compound NOT metabolized | Compound NOT metabolized | Compound NOT metabolized | Compound NOT metabolized | Compound NOT metabolized
